In ChEMBL document CHEMBL5321221, “Structure-activity relationship study of RSL3-based GPX4 degraders and its potential noncovalent optimization” (Eur J Med Chem, 2023):
Active and inactive are the calls of the source. The calls are words filed in the database; no cut-off is given here.

How the values were obtained:
[1] = molecular target: T1, Phospholipid hydroperoxide glutathione peroxidase GPX4 (Homo sapiens) (UniProt P36969); assay: Induction of GPX4 degradation in human HT-1080 cells at 10 uM incubated for 24 hrs relative to control; assay type: cell-based
T1 sequence (whole entry): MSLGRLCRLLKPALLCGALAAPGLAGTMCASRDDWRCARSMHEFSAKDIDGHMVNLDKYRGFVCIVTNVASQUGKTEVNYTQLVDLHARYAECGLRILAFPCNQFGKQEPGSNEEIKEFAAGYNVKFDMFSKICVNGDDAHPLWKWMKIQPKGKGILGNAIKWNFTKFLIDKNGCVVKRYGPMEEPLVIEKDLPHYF

[2] = molecular target: T1, Phospholipid hydroperoxide glutathione peroxidase GPX4 (Homo sapiens); assay: Induction of GPX4 degradation in human HT-1080 cells at 0.1 uM incubated for 6 hrs relative to control; assay type: cell-based
[3] = molecular target: T1, Phospholipid hydroperoxide glutathione peroxidase GPX4 (Homo sapiens); assay: Induction of GPX4 degradation in human HT-1080 cells at 10 nM incubated for 24 hrs relative to control; assay type: cell-based
[4] = molecular target: T1, Phospholipid hydroperoxide glutathione peroxidase GPX4 (Homo sapiens); assay: Induction of GPX4 degradation in human HT-1080 cells at 10 uM incubated for 24 hrs by Western blotting analysis; assay type: cell-based
HT-1080 [5] = assay: Antiproliferative activity against human HT-1080 cells at 10 uM; assay type: functional, cell-based
[6] = molecular target: T1, Phospholipid hydroperoxide glutathione peroxidase GPX4 (Homo sapiens); assay: Induction of GPX4 degradation in human HT-1080 cells at 0.1 to 1 uM incubated for 24 hrs; assay type: cell-based; conditions: dose 0.1-1 µM
[7] = molecular target: T1, Phospholipid hydroperoxide glutathione peroxidase GPX4 (Homo sapiens); assay: Induction of GPX4 degradation in human HT-1080 cells at 0.1 uM pretreated for 2 hrs followed by PYR41 addition and measured after 6 hrs; assay type: cell-based; conditions: time 8.0 hrs
[8] = molecular target: T1, Phospholipid hydroperoxide glutathione peroxidase GPX4 (Homo sapiens); assay: Induction of GPX4 degradation in human HT-1080 cells at 0.0001 to 0.1 uM incubated for 24 hrs by Western blotting analysis; assay type: cell-based; conditions: dose 0.0001-0.1 µM
[9] = molecular target: T1, Phospholipid hydroperoxide glutathione peroxidase GPX4 (Homo sapiens); assay: Induction of GPX4 degradation in human HT-1080 cells in presence of lenalidomide; assay type: cell-based
[10] = molecular target: T1, Phospholipid hydroperoxide glutathione peroxidase GPX4 (Homo sapiens); assay: Induction of GPX4 degradation in human HT-1080 cells at 0.1 uM pretreated for 2 hrs followed by MG132 and measured after 6 hrs; assay type: cell-based; conditions: time 8.0 hrs
HT-1080 [11] = assay: Antiproliferative activity against human HT-1080 cells at 1 uM incubated for 24 hrs in presence of liproxstatin-1; assay type: functional, cell-based
[12] = Antiproliferative activity against human HEK293T cells incubated for 24 hrs; assay type: toxicity, cell-based, HEK-293T
[13] = molecular target: T1, Phospholipid hydroperoxide glutathione peroxidase GPX4 (Homo sapiens); assay: Induction of GPX4 degradation in human HT-1080 cells at 0.0001 to 0.1 uM incubated for 1 hr by Western blotting analysis; assay type: cell-based; conditions: dose 0.0001-0.1 µM
HT-1080 [14] = assay: Potency index, ratio of (4-(bis(4-chlorophenyl)methyl)piperazin-1-yl)(5-methyl-4-nitroisoxazol-3-yl)methanone IC50 to test compound IC50 for antiproliferative activity against human HT-1080 cells; assay type: functional
HT-1080 [15] = assay: Potency index, ratio of methyl (1S,3R)-1-(4-acetylphenyl)-2-(2-chloroacetyl)-2,3,4,9-tetrahydro-1H-pyrido[3,4-b]indole-3-carboxylate IC50 to test compound IC50 for antiproliferative activity against human HT-1080 cells; assay type: functional
[16] = molecular target: T2, Phospholipid hydroperoxide glutathione peroxidase GPX4 (Homo sapiens, UniProt P36969); assay: Induction of GPX4 degradation in gefitinib resistant human NCI-H1650 cells incubated for 24 hrs; assay type: cell-based
T2 sequence (P36969 whole entry): T1 sequence (whole entry)

[17] = molecular target: T2, Phospholipid hydroperoxide glutathione peroxidase GPX4; assay: (§1) Induction of GPX4 degradation in human HT-1080 cells incubated for 6 hrs by Western blotting analysis; assay type: cell-based
[18] = molecular target: T1, Phospholipid hydroperoxide glutathione peroxidase GPX4 (Homo sapiens); assay: as §1; assay type: cell-based; conditions: dose 0.0001-0.1 µM
[19] = molecular target: T1, Phospholipid hydroperoxide glutathione peroxidase GPX4 (Homo sapiens); assay: Induction of GPX4 degradation in human HT-1080 cells in presence of RSL3; assay type: cell-based
HT-1080 [20] = assay: Antiproliferative activity against human HT-1080 cells incubated for 24 hrs; assay type: functional, cell-based; conditions: HT-1080, 24 h
[21] = molecular target: T2, Phospholipid hydroperoxide glutathione peroxidase GPX4; assay: Induction of GPX4 degradation in human NCI-H1650 cells incubated for 24 hrs; assay type: cell-based

SMILES: COC(=O)[C@H]1Cc2c([nH]c3ccccc23)[C@H](c2ccc(C(=O)NCc3cn(CCOCCOCCOCCOCCNc4cccc5c4CN(C4CCC(=O)NC4=O)C5=O)nn3)cc2)N1C(=O)CCl (stereo partly specified)
- Activity [1]: inactive

SMILES: COC(=O)[C@H]1Cc2c([nH]c3ccccc23)[C@H](c2ccc(C(=O)N3CCN(CCCCCCCCCCCNc4cccc5c4CN(C4CCC(=O)NC4=O)C5=O)CC3)cc2)N1C(=O)CCl (stereo partly specified)
- Activity [2]: 64%

SMILES: COC(=O)[C@H]1Cc2c([nH]c3ccccc23)[C@H](c2ccc(C(=O)N3CCN(CCCCCCCCCCCCNc4cccc5c4C(=O)N(C4CCC(=O)NC4=O)C5=O)CC3)cc2)N1C(=O)CCl (stereo partly specified)
- Activity [2]: 56%

SMILES: COC(=O)[C@H]1Cc2c([nH]c3ccccc23)[C@H](c2ccc(C(=O)N3CCC(N4CCN(CCCCCCCCCNc5cccc6c5CN(C5CCC(=O)NC5=O)C6=O)CC4)CC3)cc2)N1C(=O)CCl (stereo partly specified)
- Activity [3]: 15%

SMILES: COC(=O)[C@H]1Cc2c([nH]c3ccccc23)[C@H](c2ccc(C(=O)N3CCC(CN4CCN(CCCNc5cccc6c5C(=O)N(C5CCC(=O)NC5=O)C6=O)CC4)CC3)cc2)N1C(=O)CCl (stereo partly specified)
- Activity [3]: 3%

SMILES: COC(=O)[C@H]1Cc2c([nH]c3ccccc23)[C@H](c2ccc(C(=O)NCc3cn(CCOCCOCCOCCOCCNc4cccc5c4C(=O)N(C4CCC(=O)NC4=O)C5=O)nn3)cc2)N1C(=O)CCl (stereo partly specified)
- Activity [1]: 35%

SMILES: COC(=O)[C@H]1Cc2c([nH]c3ccccc23)[C@H](c2ccc(C(=O)N3CCC(CN4CCN(CCCCCCCCNc5cccc6c5C(=O)N(C5CCC(=O)NC5=O)C6=O)CC4)CC3)cc2)N1C(=O)CCl (stereo partly specified)
- Activity [3]: 34%

SMILES: CCC(=O)N1[C@@H](c2ccc(C(=O)N3CCN(CCCCCCCCCCCCCNc4cccc5c4CN(C4CCC(=O)NC4=O)C5=O)CC3)cc2)c2[nH]c3ccccc3c2C[C@@H]1C(=O)OC (stereo partly specified)
- Activity [4]: inactive

SMILES: CCCCCC(=O)N1[C@@H](c2ccc(C(=O)OC)cc2)c2[nH]c3ccccc3c2C[C@@H]1C(=O)OC
- Activity [4]: inactive

SMILES: COC(=O)[C@H]1Cc2c([nH]c3ccccc23)[C@H](c2ccc(C(=O)NCc3cn(CCOCCOCCOCCN[C@H](C(=O)N4C[C@H](O)C[C@H]4C(=O)N[C@@H](C)c4ccc(-c5scnc5C)cc4)C(C)(C)C)nn3)cc2)N1C(=O)CCl
- Activity (HT-1080 [5]): Active
- Activity [6]: inactive
- Activity [1]: 50%

SMILES: COC(=O)[C@H]1Cc2c([nH]c3ccccc23)[C@H](c2ccc(C(=O)NCc3cn(CCOCCOCCOCCOCCN[C@H](C(=O)N4C[C@H](O)C[C@H]4C(=O)N[C@@H](C)c4ccc(-c5scnc5C)cc4)C(C)(C)C)nn3)cc2)N1C(=O)CCl
- Activity [1]: 12%

SMILES: COC(=O)[C@H]1Cc2c([nH]c3ccccc23)[C@H](c2ccc(C(=O)N3CCN(CCCCCCCNc4cccc5c4CN(C4CCC(=O)NC4=O)C5=O)CC3)cc2)N1C(=O)CCl (stereo partly specified)
- Activity [2]: 10%

SMILES: COC(=O)[C@H]1Cc2c([nH]c3ccccc23)[C@H](c2ccc(C(=O)N3CCN(CCCCCCCCCCCCCNc4cccc5c4CN(C4CCC(=O)NC4=O)C5=O)CC3)cc2)N1C(=O)CCl (stereo partly specified)
- Activity [7]: inactive
- Activity [8]: Active
- Activity [9]: Active
- Activity [10]: inactive
- Activity [2]: 69%
- Activity [3]: 57%
- Activity (HT-1080 [11]): inactive
- IC50 at 24 h [12]: 205 nM
- Activity [13]: Active
- Ratio IC50 (HT-1080 [14]): 6
- Ratio IC50 (HT-1080 [15]): 2
- DC50 [16]: 22.9 nM
- DC50 [17]: 37.4 nM
- Activity [18]: Dose-Dependent Effect
- Activity [19]: Active
- IC50 (HT-1080 [20]): 68 nM
- DC50 [21]: 17.9 nM

SMILES: COC(=O)[C@H]1Cc2c([nH]c3ccccc23)[C@H](c2ccc(C(=O)NCc3cn(CCOCCOCCOCCOCCOCCNc4cccc5c4C(=O)N(C4CCC(=O)NC4=O)C5=O)nn3)cc2)N1C(=O)CCl (stereo partly specified)
- Activity [1]: 15%

SMILES: COC(=O)[C@H]1Cc2c([nH]c3ccccc23)[C@H](c2ccc(C(=O)NCc3cn(CCOCCOCCOCCNc4cccc5c4CN(C4CCC(=O)NC4=O)C5=O)nn3)cc2)N1C(=O)CCl (stereo partly specified)
- Activity [1]: inactive

SMILES: COC(=O)c1ccc([C@@H]2N[C@@H](C(=O)OC)Cc3c2[nH]c2ccccc32)cc1
- Activity [4]: inactive

SMILES: CCCC(=O)N1[C@@H](c2ccc(C(=O)OC)cc2)c2[nH]c3ccccc3c2C[C@@H]1C(=O)OC
- Activity [4]: inactive

SMILES: CCC(=O)N1[C@@H](c2ccc(C(=O)OC)cc2)c2[nH]c3ccccc3c2C[C@@H]1C(=O)OC
- Activity [4]: inactive

SMILES: COC(=O)[C@H]1Cc2c([nH]c3ccccc23)[C@H](c2ccc(C(=O)N3CCN(CCCCCCCCCCCNc4cccc5c4C(=O)N(C4CCC(=O)NC4=O)C5=O)CC3)cc2)N1C(=O)CCl (stereo partly specified)
- Activity [2]: 46%

SMILES: Cc1onc(C(=O)N2CCN(C(c3ccc(Cl)cc3)c3ccc(Cl)cc3)CC2)c1[N+](=O)[O-]
- IC50 at 24 h [12]: 430 nM
- IC50 (HT-1080 [20]): 410 nM

SMILES: COC(=O)[C@H]1Cc2c([nH]c3ccccc23)[C@H](c2ccc(C(=O)N3CCN(CCCCCCCCCCCCNc4cccc5c4CN(C4CCC(=O)NC4=O)C5=O)CC3)cc2)N1C(=O)CCl (stereo partly specified)
- Activity [2]: 68%

SMILES: COC(=O)[C@H]1Cc2c([nH]c3ccccc23)[C@H](c2ccc(C(=O)NCc3cn(CCOCCOCCNc4cccc5c4C(=O)N(C4CCC(=O)NC4=O)C5=O)nn3)cc2)N1C(=O)CCl (stereo partly specified)
- Activity [1]: 32%

SMILES: COC(=O)[C@H]1Cc2c([nH]c3ccccc23)[C@H](c2ccc(C(=O)N3CCN(CCCCCCCCCCCCCNc4cccc5c4C(=O)N(C4CCC(=O)NC4=O)C5=O)CC3)cc2)N1C(=O)CCl (stereo partly specified)
- Activity [2]: 67%

SMILES: COC(=O)[C@H]1Cc2c([nH]c3ccccc23)[C@H](c2ccc(C(=O)NCc3cn(CCOCCOCCOCCOCCOCCNc4cccc5c4CN(C4CCC(=O)NC4=O)C5=O)nn3)cc2)N1C(=O)CCl (stereo partly specified)
- Activity [1]: inactive

SMILES: COC(=O)[C@H]1Cc2c([nH]c3ccccc23)[C@H](c2ccc(C(=O)N3CCN(CCCCCCCCCCCCCCNc4cccc5c4C(=O)N(C4CCC(=O)NC4=O)C5=O)CC3)cc2)N1C(=O)CCl (stereo partly specified)
- Activity [2]: 44%

SMILES: COC(=O)[C@H]1Cc2c([nH]c3ccccc23)[C@H](c2ccc(C(=O)NCc3cn(CCOCCOCCOCCOCCOCCN[C@H](C(=O)N4C[C@H](O)C[C@H]4C(=O)N[C@@H](C)c4ccc(-c5scnc5C)cc4)C(C)(C)C)nn3)cc2)N1C(=O)CCl
- Activity [1]: 11%

SMILES: COC(=O)[C@H]1Cc2c([nH]c3ccccc23)[C@H](c2ccc(C(=O)NCc3cn(CCOCCOCCOCCNc4cccc5c4C(=O)N(C4CCC(=O)NC4=O)C5=O)nn3)cc2)N1C(=O)CCl (stereo partly specified)
- Activity [1]: 22%

SMILES: COC(=O)[C@H]1Cc2c([nH]c3ccccc23)[C@H](c2ccc(C(=O)N3CCC(CN4CCN(CCCCCNc5cccc6c5C(=O)N(C5CCC(=O)NC5=O)C6=O)CC4)CC3)cc2)N1C(=O)CCl (stereo partly specified)
- Activity [3]: 5%

SMILES: COC(=O)[C@H]1Cc2c([nH]c3ccccc23)[C@H](c2ccc(C(=O)NCc3cn(CCOCCOCCNc4cccc5c4CN(C4CCC(=O)NC4=O)C5=O)nn3)cc2)N1C(=O)CCl (stereo partly specified)
- Activity [1]: inactive

SMILES: COC(=O)[C@H]1Cc2c([nH]c3ccccc23)[C@H](c2ccc(C(=O)N3CCN(CCCCCCCCCCCCCCNc4cccc5c4CN(C4CCC(=O)NC4=O)C5=O)CC3)cc2)N1C(=O)CCl (stereo partly specified)
- Activity [2]: 58%

SMILES: COC(=O)[C@H]1Cc2c([nH]c3ccccc23)[C@H](c2ccc(C(=O)N3CCN(CCCCCCCCCNc4cccc5c4CN(C4CCC(=O)NC4=O)C5=O)CC3)cc2)N1C(=O)CCl (stereo partly specified)
- Activity [2]: 48%

SMILES: COC(=O)[C@H]1Cc2c([nH]c3ccccc23)[C@H](c2ccc(C(=O)NCc3cn(CCOCCOCCN[C@H](C(=O)N4C[C@H](O)C[C@H]4C(=O)N[C@@H](C)c4ccc(-c5scnc5C)cc4)C(C)(C)C)nn3)cc2)N1C(=O)CCl
- Activity [1]: 49%
